Data: patent US20250255834A1, “ANXIOLYTIC COMPOSITION, FORMULATION AND METHOD OF USE” (priority 2012, published 2025)

Tested on: anxiety
Assay: Intranasal ketamine spray given to individual adult subjects for anxiety before a procedure or flight (case reports)

CNC1(c2ccccc2Cl)CCCCC1=O (stereo not drawn) [ketamine]
duration of relief from anxiety and calming effect (Example I: healthy person, intranasal, about 0.2-0.3 mg/kg): 15 to 30 min | development of anxiety during the dental procedure (Example II: person with severe dental phobia, dental extraction under local anesthetic, intranasal unit dose before travel, additional dosage in the waiting room): without the development of anxiety | duration of relief from anxiety and calming effect (Example II: person with severe dental phobia, intranasal unit dose as in Example I): 15 to 30 min
